One data set deals with T1, Thymidylate synthase (Lactobacillus casei, UniProt P00469).
T1 sequence (P00469 whole entry): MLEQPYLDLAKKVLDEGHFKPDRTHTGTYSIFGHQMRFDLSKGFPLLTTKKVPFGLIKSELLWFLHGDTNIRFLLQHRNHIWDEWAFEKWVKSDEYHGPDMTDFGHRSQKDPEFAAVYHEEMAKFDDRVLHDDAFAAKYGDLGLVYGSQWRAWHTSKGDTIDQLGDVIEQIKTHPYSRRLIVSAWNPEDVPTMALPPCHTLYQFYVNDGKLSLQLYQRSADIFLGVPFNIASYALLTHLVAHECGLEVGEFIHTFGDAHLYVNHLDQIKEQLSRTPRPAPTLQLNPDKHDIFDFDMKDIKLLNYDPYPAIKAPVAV
Put plainly: The compound was evaluated for the binding affinity against Lactobacillus casei dTMP synthase using spectrophotometric assay. More on the design: species or system Lacticaseibacillus casei.

A short description of data set [1]: Half life was determined. It is filed as ADME. The following applies: rat.

Each structure is given as a SMILES string. pKi: −log10 of the molar value. Where only a bound is given, the exact number is not on record here.

`O=c1[nH]c(=O)n([C@H]2C[C@H](O)[C@@H](COP(=O)(O)O)O2)cc1C#CCF` gave a pKi at Thymidylate synthase of 7.83. The same compound displayed a half-life in data set [1] of under 1 min.
